The values below come from publication PMC7286914 (2020).

Experiment in all cases: Cy3/quencher fluorescence titration, Langmuir fit
Assay [1] deals with A-G Mismatch (DNA, aptamer) CACCTGGGGGAGTATTGCGGAGGAAGGTTTTTTTTTTTTTTTCCCAAGGTG
The note with it: 6 mM MgCl2; Na+ (concentration not stated); 10 mM Tris, 10 mM Bis-Tris, 10 mM sodium acetate, pH 7.5, room temperature; apparent, intramolecular displacement strand competes.

Assay [2] relates to TAT60 (DNA, aptamer) CACCTGGGGGAGTATTGCGGAGGAAGGTTTTGAGGGAAAGAATCATTTCTTTCCCTATGTTTCCCTTTCTTTTTAACCAGGTG
As to conditions: 6 mM MgCl2; Na+ (concentration not stated); 10 mM Tris, 10 mM Bis-Tris, 10 mM sodium acetate, pH 7, room temperature; apparent, intramolecular displacement strand competes.

Assay [3] deals with A-C Mismatch (DNA, aptamer) CACCTGGGGGAGTATTGCGGAGGAAGGTTTTTTTTTTTTTACCCCCAAGTG
The note with it: 6 mM MgCl2; Na+ (concentration not stated); 10 mM Tris, 10 mM Bis-Tris, 10 mM sodium acetate, pH 8, room temperature; apparent, intramolecular displacement strand competes.

Assay [4] relates to Combined TAT80/A-C Mismatch (DNA, aptamer) CACCTGGGGGAGTATTGCGGAGGAAGGTTTTGAAGAAAAAGATTGCTCTTTTTCTTATTGTTTCTTTTTCTATTTACCCCCAAGTG
As to conditions: 6 mM MgCl2; Na+ (concentration not stated); 10 mM Tris, 10 mM Bis-Tris, 10 mM sodium acetate, pH 6.5, room temperature; apparent, intramolecular displacement strand competes.

With `Nc1ncnc2c1ncn2[C@@H]1O[C@H](COP(=O)(O)OP(=O)(O)OP(=O)(O)O)[C@@H](O)[C@H]1O`, the KDeff is 0.32 (95% CI 0.27–0.37) mM in assay [1], 3.9 (95% CI 3.2–4.8) mM in assay [2], 0.30 (95% CI 0.25–0.36) mM in assay [3] and 32 (95% CI 27–39) μM in assay [4].
